Reference: US20130143891A1, “Methods for Treating Methotrexate-Resistant Disorders with 10-Propargyl-10-Deazaaminopterin” (ALLOS THERAPEUTICS, INC., priority 2010, published 2013)
Entries after “also recorded” stand apart in the source; their conditions may differ. Like-named read-outs stand apart in the source and are kept apart here.

Legend:
[1] = tested on: DU-PDX cells; experiment: Cytotoxicity in 10-propargyl-10-deazaminopterin-adapted DU145 cells; format: cell-based, human
Protocol: (§1) All the data generated was the result of three separate experiments performed in duplicate. Cell viability was determined using the MTT assay, which was carried out as described previously (Hansen, 1989). Briefly, cells were seeded in 96-well plates at a density of 2×10^3 cells well^−1. Cells were incubated for 120 hours and then 0.4 mg ml^−1 of MTT dye (3-[4,5-dimethylthiazol-2-yl]-2,5-diphenyltetrazolium bromide was added for 4 hours at 37° C. The monolayer was suspended in 0.1 ml of DMSO and the absorbance at 560 nm was measured using a microplate reader. Positive and negative controls included wells with untreated cells or medium containing MTT with no cells, respectively. The conversion of yellow water-soluble tetrazolium MTT into purple insoluble formazan is catalyzed by mitochondrial dehydrogenases and is used to estimate the number of viable cells. The control value corresponding to untreated cells was taken as 100% and the viability of treated samples was expressed as a percentage of the control. IC50 values were determined as concentrations that reduced cell viability by 50%.
(§2) For single agent studies, cells were seeded and allowed to settle for 24 hours prior to treatment with increasing concentrations of 10-propargyl-10-deazaminopterin for 72 h. After incubation, the cells were allowed to recover in compound-free medium for 48 h, prior to determination of growth inhibition using the MTT assay.
(§3) To characterize the predictive factors of 10-propargyl-10-deazaminopterin antiproliferative effects, the cell lines DU-PDX and HEP-PDX were developed from parental DU145 and HEP2 cells, respectively, by exposure to stepwise increasing concentrations of 10-propargyl-10-deazaminopterin over a period of 6 months.

[2] = tested on: 15 human solid tumor cell lines; experiment: Cytotoxicity across panel of 15 human solid tumor cell lines; format: cell-based
Protocol: A panel of colon (HT29, HCT116, COLO205, HCC2998), breast (MCF7, MDA-MB-435), lung (HOP62, HOP92), ovarian (OVCAR3, IGROV1), prostate (DU145, PC3), and head and neck (SCC61, HEP2, SQ20B) human cancer cell lines was purchased from the ATCC (Rockville, Md.) and National Cancer Institute collections. Cells were grown as monolayers in RPMI medium supplemented with 10% fetal calf serum, 2 mM glutamine, 100 units ml^−1 penicillin and […] streptomycin.
as §1, §2

[3] = tested on: DU145 prostate cancer cell line; experiment: MTT cell cytotoxicity assay, DU145; format: cell-based, human; details: naïve/parental, 72 h exposure, read-out: Cytotoxicity (IC50s)
Protocol: (§4) A panel of colon (HT29, HCT116, COLO205, HCC2998), breast (MCF7, MDA-MB-435), lung (HOP62, HOP92), ovarian (OVCAR3, IGROV1), prostate (DU145, PC3), and head and neck (SCC61, HEP2, SQ20B) human cancer cell lines was purchased from the ATCC (Rockville, Md.) and National Cancer Institute collections. […] All the data generated was the result of three separate experiments performed in duplicate. Cell viability was determined using the MTT assay, which was carried out as described previously (Hansen, 1989). Briefly, cells were seeded in 96-well plates at a density of 2×10^3 cells well^−1. […] The monolayer was suspended in 0.1 ml of DMSO and the absorbance at 560 nm was measured using a microplate reader. Positive and negative controls included wells with untreated cells or medium containing MTT with no cells, respectively. The conversion of yellow water-soluble tetrazolium MTT into purple insoluble formazan is catalyzed by mitochondrial dehydrogenases and is used to estimate the number of viable cells.

[4] = tested on: HEP-PDX cells; experiment: Cytotoxicity in 10-propargyl-10-deazaminopterin-adapted HEP2 cells; format: cell-based, human
Protocol: as §1, §2, §3

[5] = tested on: DHFR; experiment: Western blot of DHFR protein expression; format: cell-based, human
Protocol: Cells were lysed in buffer containing 50 mM HEPES (pH 7.6), 150 mM NaCl, 1% Triton X-100, 2 mM sodium vanadate, 100 mM NaF, and 0.4 mg·ml^−1 phenylmethylsulfonyl fluoride. Equal amounts of protein (20-50 μg/lane) were subjected to SDS-PAGE and transferred to nitrocellulose membranes. Membranes were probed with anti-cleaved PARP, anti-cleaved caspase 3, anti-caspase 9 (Cell Signaling, Saint Quentin Yvelines, France), anti-DHFR (Abcam, France), anti-β-actin (Sigma Aldrich, Saint-Quentin Fallavier, France) specific primary antibodies followed by peroxidase-linked secondary antibodies and visualization by chemiluminescence.

[6] = tested on: HEP2 head and neck cancer cell line; experiment: MTT cell cytotoxicity assay, HEP2; format: cell-based, human; details: 72 h exposure, read-out: Cytotoxicity (IC50s)
Protocol: as §4

[7] = tested on: IGROV1 ovarian cancer cell line; experiment: MTT cell cytotoxicity assay, IGROV1; format: cell-based, human; details: 72 h exposure, read-out: Cytotoxicity (IC50s)
Protocol: as §4

[8] = tested on: DU-MTX cells; experiment: Cytotoxicity in methotrexate-adapted DU145 cells; format: cell-based, human
Protocol: as §1, §2
To compare the mechanisms of 10-propargyl-10-deazaminopterin and methotrexate resistance, the cell lines DU-MTX and HEP-MTX were developed from parental DU145 and HEP2 cells by exposure to stepwise increasing concentrations of methotrexate.

[9] = tested on: COLO205 colon cancer cell line; experiment: MTT cell cytotoxicity assay, COLO205; format: cell-based, human; details: 72 h exposure, read-out: Cytotoxicity (IC50s)
Protocol: as §4

[10] = tested on: MDA-MB-435 melanoma cell line; experiment: MTT cell cytotoxicity assay, MDA-MB-435; format: cell-based, human; details: MDA-MB-435 (melanoma; MDA435 in table), 72 h exposure, read-out: Cytotoxicity (IC50s)
Protocol: as §4

[11] = tested on: PC3 prostate cancer cell line; experiment: MTT cell cytotoxicity assay, PC3; format: cell-based, human; details: 72 h exposure, read-out: Cytotoxicity (IC50s)
Protocol: as §4

[12] = tested on: HCT116 colon cancer cell line; experiment: MTT cell cytotoxicity assay, HCT116; format: cell-based, human; details: 72 h exposure, read-out: Cytotoxicity (IC50s)
Protocol: as §4

[13] = tested on: OVCAR3 ovarian cancer cell line; experiment: MTT cell cytotoxicity assay, OVCAR3; format: cell-based, human; details: 72 h exposure, read-out: Cytotoxicity (IC50s)
Protocol: as §4

[14] = tested on: HOP62 NSCLC cell line; experiment: MTT cell cytotoxicity assay, HOP62; format: cell-based, human; details: 72 h exposure, read-out: Cytotoxicity (IC50s)
Protocol: as §4

[15] = tested on: MCF7 breast cancer cell line; experiment: MTT cell cytotoxicity assay, MCF7; format: cell-based, human; details: 72 h exposure, read-out: Cytotoxicity (IC50s)
Protocol: as §4

[16] = tested on: SQ20B head and neck cancer cell line; experiment: MTT cell cytotoxicity assay, SQ20B; format: cell-based, human; details: 72 h exposure, read-out: Cytotoxicity (IC50s)
Protocol: as §4

[17] = tested on: HOP92 NSCLC cell line; experiment: MTT cell cytotoxicity assay, HOP92; format: cell-based, human; details: 72 h exposure, read-out: Cytotoxicity (IC50s)
Protocol: as §4

[18] = tested on: HCC2998 colon cancer cell line; experiment: MTT cell cytotoxicity assay, HCC2998; format: cell-based, human; details: 72 h exposure, read-out: Cytotoxicity (IC50s)
Protocol: as §4

[19] = tested on: SCC61 head and neck cancer cell line; experiment: MTT cell cytotoxicity assay, SCC61; format: cell-based, human; details: 72 h exposure, read-out: Cytotoxicity (IC50s)
Protocol: as §4

[20] = tested on: HT29 colon cancer cell line; experiment: MTT cell cytotoxicity assay, HT29; format: cell-based, human; details: 72 h exposure, read-out: Cytotoxicity (IC50s)
Protocol: as §4

[21] = tested on: HEP-MTX cells; experiment: Cytotoxicity in methotrexate-adapted HEP2 cells; format: cell-based, human; details: methotrexate-adapted HEP2 compared with parental cells
Protocol: as §1
For single agent studies, cells were seeded and allowed to settle for 24 hours prior to treatment with increasing concentrations of 10-propargyl-10-deazaminopterin for 72 h. […]

[22] = DU-PDX cells, 72 h exposure for pemetrexed and 5-FU
[23] = HEP-PDX cells, 72 h exposure for pemetrexed and 5-FU

| Compound | IC50 [6] | IC50 ([6]; Homo sapiens, HEp-2, 72 h) | IC50 [7] | IC50 ([7]; Homo sapiens, IGROV-1, 72 h) | IC50 [9] | IC50 ([9]; Homo sapiens, COLO 205, 72 h) | IC50 ([10]; Homo sapiens, MDA-MB-435, 72 h) | cross-resistance: cytotoxicity in DU-PDX compared with parental DU145 [1, 22] | IC50 ([11]; Homo sapiens, 72 h) | IC50 ([3]; Homo sapiens, DU-145, 72 h) | cross-resistance: cytotoxicity in HEP-PDX compared with parental HEP2 [4, 23] | IC50 ([12]; Homo sapiens, HCT-116, 72 h) | IC50 ([13]; Homo sapiens, OVCAR-3, 72 h) | IC50 ([14]; Homo sapiens, HOP-62, 72 h) | IC50 ([15]; Homo sapiens, MCF7, 72 h) | IC50 ([16]; Homo sapiens, SQ20B, 72 h) | IC50 ([17]; Homo sapiens, HOP-92, 72 h) | IC50 ([18]; Homo sapiens, HCC 2998, 72 h) | IC50 ([19]; Homo sapiens, 72 h) | IC50 ([20]; Homo sapiens, HT-29, 72 h) | also measured |
| --- | --- | --- | --- | --- | --- | --- | --- | --- | --- | --- | --- | --- | --- | --- | --- | --- | --- | --- | --- | --- | --- |
| C#CCC(Cc1cnc2nc(N)nc(N)c2n1)c1ccc(C(=O)N[C@@H](CCC(=O)O)C(=O)O)cc1 (mixture of isomers) [Pralatrexate, (2S)-2-[[4-[(1RS)-1-[(2,4-diaminopteridin-6-yl)methyl]but-3-ynyl]benzoyl]amino]pentanedioic acid] | 0.05 µM | < 0.1 µM | 0.08 µM | < 0.1 µM | 9 µM | ≥ 9 µM |  |  |  |  |  |  |  |  |  |  |  |  |  |  | less sensitive (resistant) than parental cells ([1]; DU-PDX versus parental DU145): more than 200 fold; change in cytotoxicity with and without verapamil and cyclosporine A ([1]; DU-PDX, 30 μM verapamil and 3 μM cyclosporin A concomitantly for 72 hours): No changes were observed; IC50 ([2]; 6 of the 15 human cancer cell lines, read-out: IC50 in the 6 relatively resistant of 15 cell lines): > 9 µM; IC50s on average lower than those observed for methotrexate ([2]; average over the panel): ~10 fold; IC50 ([2]; nine of the 15 human cancer cell lines, read-out: IC50 in the nine sensitive of 15 cell lines): < 0.1 µM; IC50 ([3]; listed as 10-propargyl-10-deazaminopterin): 0.01 µM; less sensitive (resistant) than parental cells ([4]; HEP-PDX versus parental HEP2): more than 200 fold; change in cytotoxicity with and without verapamil and cyclosporine A ([4]; HEP-PDX, 30 μM verapamil and 3 μM cyclosporin A concomitantly for 72 hours): No changes were observed; DHFR protein expression after prolonged exposure ([5]; 6 months exposure, HEP-PDX cells): not after prolonged (6 months) exposure; DHFR protein expression after short exposure ([5]; 24 hour exposure (FIG. 6)): slightly increased; IC50 lower than that of methotrexate ([8]; DU-MTX cells): approximately 10 fold; IC50 ([8]; Homo sapiens, DU-145, DU-MTX cells (FIG. 3), read-out: IC50 for the methotrexate adapted DU-145 cell lines): 0.02 µM |
| O=c1[nH]cc(F)c(=O)[nH]1 [5-FU, 5-fluorouracil] |  | 86 µM |  | 8 µM |  | 0.8 µM | 5 µM | No significant difference | 1.5 µM | 7 µM | No significant difference | 10 µM | 31 µM | 78 µM | 1.3 µM | 10 µM | 18 µM | 10 µM | 1.2 µM | 3 µM |  |
| C[C@H]1O[C@@H](n2cc(F)c(=O)[nH]c2=O)[C@H](O)[C@@H]1O [5′-DFUR] | 250 µM |  | 29 µM |  | 3.9 µM |  |  |  |  |  |  |  |  |  |  |  |  |  |  |  | IC50 [10]: 33 µM; IC50 [11]: 25 µM; IC50 [3]: 28 µM; IC50 [12]: 45 µM; IC50 [13]: 230 µM; IC50 [14]: 380 µM; IC50 [15]: 7.8 µM; IC50 [16]: 27 µM; IC50 [17]: 135 µM; IC50 [18]: 34 µM; IC50 [19]: 3.2 µM; IC50 [20]: 16 µM |
| CN(Cc1cnc2nc(N)nc(N)c2n1)c1ccc(C(=O)N[C@@H](CCC(=O)O)C(=O)O)cc1 [Methotrexate] |  | 0.25 µM |  | 0.33 µM |  | 30 µM | > 350 µM | partial cross-resistance; also recorded: insensitive | 0.1 µM | 0.3 µM | partial cross-resistance | > 350 µM | > 350 µM | 0.15 µM | 300 µM | 0.26 µM | 0.6 µM | > 350 µM | 0.03 µM | 0.22 µM | sensitivity of HEP-MTX cells (in words) [21]: displayed resistance; increase in IC50 in methotrexate adapted DU-145 cells ([8]; DU-MTX versus naïve DU-145): approximately 10 fold; sensitivity of DU-MTX cells (in words) ([8]; methotrexate-adapted DU145 compared with parental/naïve cells): displayed resistance |
| Nc1nc2[nH]cc(CCc3ccc(C(=O)N[C@@H](CCC(=O)O)C(=O)O)cc3)c2c(=O)[nH]1 [Pemetrexed, pemetrexed] |  | 0.1 µM |  | 300 µM |  | 0.024 µM | 300 µM |  | 2.7 µM | 0.048 µM |  | 350 µM | 0.025 µM | 0.029 µM | 0.022 µM | 0.025 µM | 0.02 µM | 1.5 µM | 0.015 µM | 0.023 µM | cross-resistance: cytotoxicity in DU-PDX compared with parental DU145 [1]: only slightly less cytotoxic; cross-resistance: cytotoxicity in HEP-PDX compared with parental HEP2 [4]: only slightly less cytotoxic |
